Assays:
A549 = assay: Liperfluo lipid peroxidation; format: cell-based, human; details: OGM2 and ionizing radiation
Description: Where appropriate, ANOVA, or student's T-test were conducted in PRISM. Chi squared T(X) was used for Liperfluo analysis. A value T(X)>4 implies that the two distributions are different with a p<0.01 (99% confidence). For drug interaction and therapeutic interaction, the coefficient of drug interaction (CDI) was calculated as follows: CDI=AB/(A×B). According to the impact of each group, AB is the value of combined treatment and A or B is the value of the single agent group to control group.
Radiation, like OGM2, induces lipid peroxidation in addition to DNA damage. OGM was tested for its ability to sensitize lung and pancreatic cancers to radiation induced lipid peroxidation and ferroptosis. Cells were incubated at 37° C. in 5% CO2 in […] DMEM with DMSO, OGM2, or Erastin for 3 days. Then 2.5 μM Liperfluo in 3 ml fresh media was added and cells were incubated at 37° C. in 5% CO2 for 1 hour. Cells were then trypsinized, pelleted, and resuspended in cell sorting media (1% BSA and 1 mM EDTA in PBS pH 7.4). A BD LSR II was used to record Ten thousand events and the data processed with FlowJo v10.8. […] All treatments were highly significant with Chi-squared >4 indicating a p<0.01.

PIPSK1C = target: T1, PIPSK1C (Homo sapiens, UniProt O60331); assay: KinomeScan; format: binding; details: read-out: % Control
T1 construct: purchased DiscoveRx (Fremont, CA)
T1 sequence (O60331 whole entry): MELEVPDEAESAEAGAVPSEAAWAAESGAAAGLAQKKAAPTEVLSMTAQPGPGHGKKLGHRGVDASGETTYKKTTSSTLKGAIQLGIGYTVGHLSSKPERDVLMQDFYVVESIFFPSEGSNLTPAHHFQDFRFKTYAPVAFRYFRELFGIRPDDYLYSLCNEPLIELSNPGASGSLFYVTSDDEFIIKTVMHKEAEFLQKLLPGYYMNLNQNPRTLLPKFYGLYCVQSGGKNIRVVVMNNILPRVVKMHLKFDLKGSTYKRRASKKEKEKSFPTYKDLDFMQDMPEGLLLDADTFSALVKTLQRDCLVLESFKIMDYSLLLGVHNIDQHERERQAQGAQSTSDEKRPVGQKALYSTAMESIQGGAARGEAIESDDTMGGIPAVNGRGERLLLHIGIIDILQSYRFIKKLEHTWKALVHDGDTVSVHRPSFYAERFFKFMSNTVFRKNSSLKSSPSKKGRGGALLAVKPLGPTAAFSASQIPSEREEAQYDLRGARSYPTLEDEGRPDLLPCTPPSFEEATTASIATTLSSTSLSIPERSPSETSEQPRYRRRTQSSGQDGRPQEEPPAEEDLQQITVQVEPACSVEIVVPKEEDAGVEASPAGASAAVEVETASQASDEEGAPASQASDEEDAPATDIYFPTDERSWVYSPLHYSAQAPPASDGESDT

OT = target: T2, OT (Homo sapiens, UniProt P30559); assay: GPCR Profiler; format: cell-based
T2 construct: host or cells: Chem-1 cells expressing Gα15
T2 sequence (P30559 whole entry): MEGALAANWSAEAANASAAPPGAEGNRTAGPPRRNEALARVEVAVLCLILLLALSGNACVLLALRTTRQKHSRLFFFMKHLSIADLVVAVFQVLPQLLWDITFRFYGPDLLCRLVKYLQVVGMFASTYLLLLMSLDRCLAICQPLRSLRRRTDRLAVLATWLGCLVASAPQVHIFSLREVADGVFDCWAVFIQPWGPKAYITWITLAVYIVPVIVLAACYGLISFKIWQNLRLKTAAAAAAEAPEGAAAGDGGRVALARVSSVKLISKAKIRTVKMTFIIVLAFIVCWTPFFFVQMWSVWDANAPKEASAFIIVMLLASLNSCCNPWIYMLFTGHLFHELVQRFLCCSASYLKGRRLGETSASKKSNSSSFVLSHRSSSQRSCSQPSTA

MLK1 = target: T3, MLK1 (Homo sapiens, UniProt P80192); assay: KinomeScan; format: binding; details: read-out: % Control
T3 construct: purchased DiscoveRx

CSK = CSK (Homo sapiens, UniProt P41240); assay: KinomeScan; format: binding; details: read-out: % Control
CAMK1G = target: T4, CAMK1G (Homo sapiens, UniProt Q96NX5); assay: KinomeScan; format: binding; details: read-out: % Control
T4 construct: purchased DiscoveRx (KinomeScan service)
T4 sequence (Q96NX5 whole entry): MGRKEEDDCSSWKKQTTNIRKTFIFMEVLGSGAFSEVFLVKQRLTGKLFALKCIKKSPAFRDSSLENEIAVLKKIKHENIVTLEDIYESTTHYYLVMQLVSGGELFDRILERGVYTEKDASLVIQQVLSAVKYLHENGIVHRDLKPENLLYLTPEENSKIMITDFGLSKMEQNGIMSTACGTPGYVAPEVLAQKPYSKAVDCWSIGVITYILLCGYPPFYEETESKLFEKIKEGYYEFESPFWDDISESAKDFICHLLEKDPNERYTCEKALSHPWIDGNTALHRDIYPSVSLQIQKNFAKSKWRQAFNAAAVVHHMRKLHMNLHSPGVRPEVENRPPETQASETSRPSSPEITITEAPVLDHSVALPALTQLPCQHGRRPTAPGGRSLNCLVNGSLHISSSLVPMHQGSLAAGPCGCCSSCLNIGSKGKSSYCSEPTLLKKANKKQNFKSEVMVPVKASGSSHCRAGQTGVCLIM

EGFR(S752-1759del) = target: T5, EGFR(S752-1759del) (Homo sapiens, UniProt P00533, DEL752-759); assay: KinomeScan; format: binding; details: read-out: % Control
T5 construct: purchased DiscoveRx (Fremont, CA)

AURKC = target: T6, AURKC (Homo sapiens, UniProt Q9UQB9); assay: KinomeScan; format: binding; details: read-out: % Control
T6 construct: purchased DiscoveRx (Fremont, CA)
T6 sequence (Q9UQB9 whole entry): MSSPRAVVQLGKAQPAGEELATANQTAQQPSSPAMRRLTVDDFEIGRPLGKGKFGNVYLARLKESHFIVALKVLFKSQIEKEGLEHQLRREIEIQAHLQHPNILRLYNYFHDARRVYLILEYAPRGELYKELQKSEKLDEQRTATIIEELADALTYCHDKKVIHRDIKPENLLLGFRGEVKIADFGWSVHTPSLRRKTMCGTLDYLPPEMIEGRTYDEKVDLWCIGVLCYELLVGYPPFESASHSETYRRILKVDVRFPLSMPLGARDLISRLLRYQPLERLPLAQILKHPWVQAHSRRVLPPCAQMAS

PIM3 = target: T7, PIM3 (Homo sapiens, UniProt Q86V86); assay: KinomeScan; format: binding; details: read-out: % Control
T7 construct: purchased DiscoveRx (Fremont, CA)

PAK3 = target: T8, PAK3 (Homo sapiens, UniProt O75914); assay: KinomeScan; format: binding; details: read-out: % Control
T8 construct: purchased DiscoveRx

p38-delta = target: T9, p38-delta (Homo sapiens, UniProt O15264); assay: KinomeScan; format: binding; details: read-out: % Control
T9 construct: purchased DiscoveRx

TAK1 = target: T10, TAK1 (Homo sapiens, UniProt O43318); assay: KinomeScan; format: binding; details: read-out: % Control
T10 construct: purchased DiscoveRx (Fremont, CA)

OSR1 = target: T11, OSR1 (Homo sapiens, UniProt O95747); assay: KinomeScan; format: binding; details: read-out: % Control
T11 construct: purchased DiscoveRx

MKNK2 = target: T12, MKNK2 (Homo sapiens, UniProt Q9HBH9); assay: KinomeScan; format: binding; details: read-out: % Control
T12 construct: purchased DiscoveRx

MARK3 = target: T13, MARK3 (Homo sapiens, UniProt P27448); assay: KinomeScan; format: binding; details: read-out: % Control
T13 construct: purchased DiscoveRx (Fremont, CA)

WEE1 = target: T14, WEE1 (Homo sapiens, UniProt P30291); assay: KinomeScan; format: binding; details: read-out: % Control
T14 construct: purchased DiscoveRx

ABL1-phosphorylated = target: T15, ABL1-phosphorylated (Homo sapiens, UniProt P00519); assay: KinomeScan; format: binding; details: read-out: % Control
T15 construct: purchased DiscoveRx
T15 sequence (P00519 242-493 limits assumed): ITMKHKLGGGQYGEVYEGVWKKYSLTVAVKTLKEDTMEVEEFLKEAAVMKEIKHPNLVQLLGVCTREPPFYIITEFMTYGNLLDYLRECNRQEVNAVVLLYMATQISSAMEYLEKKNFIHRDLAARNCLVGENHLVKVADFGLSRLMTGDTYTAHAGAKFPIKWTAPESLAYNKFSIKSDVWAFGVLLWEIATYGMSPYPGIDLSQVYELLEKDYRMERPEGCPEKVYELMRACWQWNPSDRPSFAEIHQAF

SNARK = target: T16, SNARK (Homo sapiens, UniProt Q9H093); assay: KinomeScan; format: binding; details: read-out: % Control
T16 construct: purchased DiscoveRx (Fremont, CA)

TTK = target: T17, TTK (Homo sapiens, UniProt P33981); assay: KinomeScan; format: binding; details: read-out: % Control
T17 construct: purchased DiscoveRx

EP2 = target: T18, EP2 (Homo sapiens, UniProt P43116); assay: GPCR Profiler; format: cell-based
T18 construct: host or cells: Chem-1 cells expressing Gα15
T18 sequence (P43116 whole entry): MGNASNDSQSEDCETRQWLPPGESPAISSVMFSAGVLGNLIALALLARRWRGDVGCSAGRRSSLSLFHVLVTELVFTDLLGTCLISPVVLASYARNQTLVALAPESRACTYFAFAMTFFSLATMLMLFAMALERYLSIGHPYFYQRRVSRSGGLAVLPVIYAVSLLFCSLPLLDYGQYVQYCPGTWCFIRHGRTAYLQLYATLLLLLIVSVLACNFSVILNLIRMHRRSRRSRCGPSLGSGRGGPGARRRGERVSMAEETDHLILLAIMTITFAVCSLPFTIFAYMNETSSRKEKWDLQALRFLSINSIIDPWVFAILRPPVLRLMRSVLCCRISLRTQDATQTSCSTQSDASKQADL

FPR1 = target: T19, FPR1 (Homo sapiens, UniProt P21462); assay: GPCR Profiler; format: cell-based
T19 construct: host or cells: Chem-1 cells expressing Gα15
T19 sequence (P21462 whole entry): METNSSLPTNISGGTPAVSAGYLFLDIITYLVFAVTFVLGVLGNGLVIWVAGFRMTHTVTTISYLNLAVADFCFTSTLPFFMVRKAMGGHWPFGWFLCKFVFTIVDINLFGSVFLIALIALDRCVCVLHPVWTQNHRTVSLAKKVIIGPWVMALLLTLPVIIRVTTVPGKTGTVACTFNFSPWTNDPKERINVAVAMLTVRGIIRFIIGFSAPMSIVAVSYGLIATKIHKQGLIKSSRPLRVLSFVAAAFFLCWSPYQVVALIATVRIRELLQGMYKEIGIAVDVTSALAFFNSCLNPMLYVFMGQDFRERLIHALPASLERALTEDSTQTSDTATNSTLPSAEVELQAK

MRGX2 = target: T20, MRGX2 (Homo sapiens, UniProt Q96LB1); assay: GPCR Profiler; format: cell-based
T20 construct: host or cells: Chem-1 cells expressing Gα15
T20 sequence (Q96LB1 whole entry, species assumed): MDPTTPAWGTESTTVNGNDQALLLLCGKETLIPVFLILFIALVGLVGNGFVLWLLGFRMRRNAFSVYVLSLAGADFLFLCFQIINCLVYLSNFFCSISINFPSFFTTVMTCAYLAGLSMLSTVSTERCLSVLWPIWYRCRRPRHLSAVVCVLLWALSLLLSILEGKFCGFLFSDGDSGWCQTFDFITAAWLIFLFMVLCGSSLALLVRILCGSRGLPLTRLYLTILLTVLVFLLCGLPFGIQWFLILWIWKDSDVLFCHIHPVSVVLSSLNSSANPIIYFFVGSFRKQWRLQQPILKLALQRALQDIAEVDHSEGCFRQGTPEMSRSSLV

M1 = target: T21, M1 (Homo sapiens, UniProt P11229); assay: GPCR Profiler; format: cell-based
T21 construct: host or cells: Chem-1 cells with promiscuous Gα15
T21 sequence (P11229 whole entry): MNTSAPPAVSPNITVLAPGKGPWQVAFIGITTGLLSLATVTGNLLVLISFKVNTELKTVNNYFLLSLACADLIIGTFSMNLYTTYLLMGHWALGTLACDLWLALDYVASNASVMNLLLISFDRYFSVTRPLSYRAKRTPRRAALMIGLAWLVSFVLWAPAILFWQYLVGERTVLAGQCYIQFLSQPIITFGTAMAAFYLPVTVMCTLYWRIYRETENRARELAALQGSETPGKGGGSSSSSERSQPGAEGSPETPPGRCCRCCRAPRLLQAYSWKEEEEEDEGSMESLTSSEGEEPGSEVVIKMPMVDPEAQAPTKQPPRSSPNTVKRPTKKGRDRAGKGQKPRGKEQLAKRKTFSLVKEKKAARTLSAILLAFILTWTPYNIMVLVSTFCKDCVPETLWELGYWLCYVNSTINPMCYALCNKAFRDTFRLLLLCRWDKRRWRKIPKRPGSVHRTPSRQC

[1] = target: T22, RPS6KA4(Kin.Dom.2-C-terminal) (Homo sapiens, UniProt O75676); assay: KinomeScan; format: binding; details: read-out: % Control
T22 construct: RPS6KA4(Kin.Dom.2-C-terminal); purchased DiscoveRx (Fremont, CA)

RIPK2 = target: T23, RIPK2 (Homo sapiens, UniProt O43353); assay: KinomeScan; format: binding; details: read-out: % Control
T23 construct: purchased DiscoveRx (Fremont, CA)
T23 sequence (O43353 whole entry): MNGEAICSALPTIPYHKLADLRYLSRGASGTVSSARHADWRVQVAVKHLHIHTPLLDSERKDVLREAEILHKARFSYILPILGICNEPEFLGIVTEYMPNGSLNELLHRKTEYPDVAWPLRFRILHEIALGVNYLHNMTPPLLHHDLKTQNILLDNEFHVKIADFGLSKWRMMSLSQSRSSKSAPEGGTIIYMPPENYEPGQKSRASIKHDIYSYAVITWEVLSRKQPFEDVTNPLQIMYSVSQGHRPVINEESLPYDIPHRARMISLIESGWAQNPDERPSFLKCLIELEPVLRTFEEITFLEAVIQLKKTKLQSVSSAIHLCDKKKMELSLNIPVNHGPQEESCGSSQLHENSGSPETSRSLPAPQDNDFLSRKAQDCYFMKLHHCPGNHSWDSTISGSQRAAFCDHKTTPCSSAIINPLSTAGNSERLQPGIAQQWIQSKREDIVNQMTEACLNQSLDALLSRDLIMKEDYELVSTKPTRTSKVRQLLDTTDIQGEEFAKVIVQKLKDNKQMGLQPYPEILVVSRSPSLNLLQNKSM

NLK = target: T24, NLK (Homo sapiens, UniProt Q9UBE8); assay: KinomeScan; format: binding; details: read-out: % Control
T24 construct: purchased DiscoveRx

NMU2 = target: T25, NMU2 (Homo sapiens, UniProt Q9GZQ4); assay: GPCR Profiler; format: cell-based
T25 construct: host or cells: Chem-1 cells expressing Gα15
T25 sequence (Q9GZQ4 whole entry, species assumed): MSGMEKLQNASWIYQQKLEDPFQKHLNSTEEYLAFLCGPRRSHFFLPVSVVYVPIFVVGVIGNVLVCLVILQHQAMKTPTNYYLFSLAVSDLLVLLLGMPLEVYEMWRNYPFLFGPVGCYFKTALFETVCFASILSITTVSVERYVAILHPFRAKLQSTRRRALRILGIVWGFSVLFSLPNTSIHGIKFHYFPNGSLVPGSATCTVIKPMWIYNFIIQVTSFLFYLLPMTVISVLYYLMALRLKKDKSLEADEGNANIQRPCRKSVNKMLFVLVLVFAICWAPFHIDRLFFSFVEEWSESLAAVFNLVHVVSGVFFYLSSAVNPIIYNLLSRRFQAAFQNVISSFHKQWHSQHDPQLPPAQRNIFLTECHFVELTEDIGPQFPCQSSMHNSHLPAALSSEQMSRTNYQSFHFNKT

KIT(D816H) = target: T26, KIT(D816H) (Homo sapiens, UniProt P10721, D816H); assay: KinomeScan; format: binding; details: read-out: % Control
T26 construct: purchased DiscoveRx

HIPK1 = target: T27, HIPK1 (Homo sapiens, UniProt Q86Z02); assay: KinomeScan; format: binding; details: read-out: % Control
T27 construct: purchased DiscoveRx (Fremont, CA)

EPHA5 = target: T28, EPHA5 (Homo sapiens, UniProt P54756); assay: KinomeScan; format: binding; details: read-out: % Control
T28 construct: purchased DiscoveRx (Fremont, CA)

YANK1 = target: T29, YANK1 (Homo sapiens, UniProt Q8WU08); assay: KinomeScan; format: binding; details: read-out: % Control
T29 construct: purchased DiscoveRx

CCc1ccc2c(c1)C1(NN=C(c3ccccc3)S1)C(=O)N2 (stereo not shown) [OGM2]
CDI, lipid peroxidation (A549): < 0.232

CCc1ccc2c(c1)C1(NN=C(c3cccc4ccccc34)S1)C(=O)N2 (stereo not shown) [OGM1, 5-ethyl-5′-naphthalen-1-ylspiro[1H-indole-3,2′-3H-1,3,4-thiadiazole]-2-one]
remaining binding at 10 µM (PIPSK1C): 97% | Antagonism (OT; 10 uM): −2.4 | Agonism (OT; 12.5 uM): 0.7 | remaining binding at 10 µM (MLK1): 100% | remaining binding at 10 µM (CSK): 83% | remaining binding at 10 µM (CAMK1G): 80% | remaining binding at 10 µM (EGFR(S752-1759del)): 91% | remaining binding at 10 µM (AURKC): 100% | remaining binding at 10 µM (PIM3): 73% | remaining binding at 10 µM (PAK3): 93% | remaining binding at 10 µM (p38-delta): 81% | remaining binding at 10 µM (TAK1): 72% | remaining binding at 10 µM (OSR1): 92% | remaining binding at 10 µM (MKNK2): 91% | remaining binding at 10 µM (MARK3): 100% | remaining binding at 10 µM (WEE1): 100% | remaining binding at 10 µM (ABL1-phosphorylated): 93% | remaining binding at 10 µM (SNARK): 100% | remaining binding at 10 µM (TTK): 75% | Antagonism (EP2; 10 uM): 7 | Agonism (EP2; 12.5 uM): −0.2 | Antagonism (FPR1; 10 uM): 14.3 | Agonism (FPR1; 12.5 uM): −0.2 | Antagonism (MRGX2; 10 uM): 5.1 | Agonism (MRGX2; 12.5 uM): −0.1 | Antagonism (M1; 10 uM): −3.3 | Agonism (M1; 12.5 uM): 0.8 | remaining binding at 10 µM [1]: 74% | remaining binding at 10 µM (RIPK2): 100% | remaining binding at 10 µM (NLK): 100% | Antagonism (NMU2; 10 uM): −4.2 | Agonism (NMU2; 12.5 uM): 0 | remaining binding at 10 µM (KIT(D816H)): 97% | remaining binding at 10 µM (HIPK1): 99% | remaining binding at 10 µM (EPHA5): 97% | remaining binding at 10 µM (YANK1): 100%
